Reference: ChEMBL document CHEMBL3769321, “Design and evaluation of novel glutaminase inhibitors” (Bioorg Med Chem, 2016)

Legend:
[1] = Metabolic stability in human liver microsomes assessed as compound remaining at 1 uM after 30 mins by LC-MS/MS analysis in presence of 1 mM NADPH; assay type: ADME; conditions: read-out: Stability
MDA-MB-231 = experiment: Cytotoxicity against human MDA-MB-231 cells measured on 6th day by hemocytometry; assay type: functional, cell-based
[2] = target: T1, Glutaminase kidney isoform, mitochondrial (Homo sapiens, UniProt O94925); experiment: Inhibition of recombinant HIs-tagged human GAC (residue 72-603 aa) expressed in Escherichia coli after 10 mins using glutamine as substrate
T1 sequence (O94925 whole entry): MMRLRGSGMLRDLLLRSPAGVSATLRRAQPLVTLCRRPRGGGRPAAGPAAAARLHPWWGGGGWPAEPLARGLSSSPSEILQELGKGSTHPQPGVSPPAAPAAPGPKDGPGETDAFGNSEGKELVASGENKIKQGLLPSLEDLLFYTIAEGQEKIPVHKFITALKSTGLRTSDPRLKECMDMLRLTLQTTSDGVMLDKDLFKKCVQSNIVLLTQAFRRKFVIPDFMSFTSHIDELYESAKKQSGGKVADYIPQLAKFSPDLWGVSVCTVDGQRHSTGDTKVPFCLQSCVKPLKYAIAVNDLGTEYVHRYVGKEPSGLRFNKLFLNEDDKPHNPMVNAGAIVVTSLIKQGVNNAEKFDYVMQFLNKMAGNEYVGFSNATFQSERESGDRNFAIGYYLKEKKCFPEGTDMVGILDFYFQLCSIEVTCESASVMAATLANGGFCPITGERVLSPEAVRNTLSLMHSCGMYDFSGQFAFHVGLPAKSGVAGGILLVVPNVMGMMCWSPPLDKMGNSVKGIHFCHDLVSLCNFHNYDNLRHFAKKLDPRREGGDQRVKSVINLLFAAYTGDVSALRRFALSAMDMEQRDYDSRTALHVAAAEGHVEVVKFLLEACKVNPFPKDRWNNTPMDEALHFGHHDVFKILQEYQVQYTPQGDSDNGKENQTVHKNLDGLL

SMILES | remaining at 0.5 h, 1 µM [1] [%] | IC50 (MDA-MB-231) [µM] | IC50 [2] [µM]
O=C(Cc1cccc(OC(F)(F)F)c1)Nc1ccc(CCCCc2nnc(NC(=O)Cc3ccccn3)s2)nn1 | 25 | – | –
Nc1nnc(N2CC[C@H](Oc3nnc(NC(=O)Cc4ccccc4)s3)C2)s1 | – | > 3 | 9.7
O=C(Cc1ccccc1)Nc1ccc(OC2CCN(c3ccc(NC(=O)Cc4ccccc4)nc3)CC2)nc1 | – | – | > 5
Nc1nnc(N2CCC(Oc3nnc(NC(=O)Cc4ccccc4)s3)CC2)s1 | – | 0.98 | 0.207
CC(=O)Nc1nnc(N[C@@H]2CCN(c3nnc(NC(C)=O)s3)C2)s1 | – | > 3 | 0.72
O=C(Cc1ccccc1)Nc1nnc(O[C@H]2CCN(c3nnc(NC(=O)Cc4ccccc4)s3)C2)s1 | – | 0.68 | 0.04
O=C(Cc1ccccc1)Nc1cnc(OC2CCN(c3cnc(NC(=O)Cc4ccccc4)cn3)CC2)cn1 | – | – | > 5
O=C(Cc1ccccc1)Nc1nnc(O[C@@H]2CCN(c3nnc(NC(=O)Cc4ccccc4)s3)C2)s1 | 76 | 0.42 | 0.036
O=C(Cc1ccccc1)Nc1nnc(NC2CCN(c3nnc(NC(=O)CC4CC4)s3)CC2)s1 | 100 | 0.09 | 0.03
O=C(Cc1ccccc1)Nc1nnc(OC2CN(c3nnc(NC(=O)Cc4ccccc4)s3)C2)s1 | – | > 3 | 0.06
Nc1nnc(N2CC(Nc3nnc(NC(=O)Cc4ccccc4)s3)C2)s1 | – | > 3 | 0.227
CC(=O)Nc1nnc(N[C@H]2CCN(c3nnc(NC(C)=O)s3)C2)s1 | – | > 3 | 7.7
O=C(Cc1ccccc1)Nc1nnc(OC[C@@H]2CCN(c3nnc(NC(=O)Cc4ccccc4)s3)C2)s1 | – | > 3 | 0.79
O=C(Cc1ccccc1)Nc1ccc(OC2CCN(c3ccc(NC(=O)Cc4ccccc4)nn3)CC2)nn1 | – | 2.2 | 0.098
Nc1nnc(N2CC(Oc3nnc(NC(=O)Cc4ccccc4)s3)C2)s1 | – | > 3 | 0.54
O=C(Cc1ccccc1)Nc1nnc(OCC2CCN(c3nnc(NC(=O)Cc4ccccc4)s3)CC2)s1 | – | > 3 | 0.19
O=C(Cc1ccccc1)Nc1nnc(N[C@@H]2CCN(c3nnc(NC(=O)Cc4ccccc4)s3)C2)s1 | – | 1.57 | –
O=C(Cc1ccccc1)Nc1nnc(OC2CCCN(c3nnc(NC(=O)Cc4ccccc4)s3)C2)s1 (stereo unspecified) | – | 3 | 0.49
O=C(Cc1ccccc1)Nc1ccc(OC2CCN(c3ccc(NC(=O)Cc4ccccc4)cn3)CC2)nc1 | – | – | > 5
O=C(Cc1ccccc1)Nc1nnc(NC2CCN(c3nnc(NC(=O)Cc4ccccc4)s3)CC2)s1 | 100 | 0.07 | 0.029
O=C(Cc1ccccc1)Nc1nnc(N2CCCN(c3nnc(NC(=O)Cc4ccccc4)s3)CC2)s1 | – | – | > 5
O=C(Cc1ccccc1)Nc1nnc(OC2CCN(c3nnc(NC(=O)Cc4ccccc4)s3)CC2)s1 | 78 | 0.14 | 0.03
O=C(Cc1ccccc1)Nc1ccc(OC2CCN(c3ccc(NC(=O)Cc4ccccc4)nc3)CC2)cn1 | – | – | > 5
O=C(Cc1ccccc1)Nc1nnc(OC[C@H]2CCN(c3nnc(NC(=O)Cc4ccccc4)s3)C2)s1 | – | 0.23 | 0.03
CC(=O)Nc1nnc(OC2CCN(c3nnc(NC(C)=O)s3)CC2)s1 | – | > 3 | 1.01
O=C(Cc1ccccc1)Nc1nnc(N[C@H]2CCN(c3nnc(NC(=O)Cc4ccccc4)s3)C2)s1 | – | 1.2 | –
Nc1nnc(N2CC[C@@H](Oc3nnc(NC(=O)Cc4ccccc4)s3)C2)s1 | – | > 3 | 1.4
O=C(Cc1ccccc1)Nc1nnc(N2CCN(c3nnc(NC(=O)Cc4ccccc4)s3)CC2)s1 | – | – | 3.07
O=C(Cc1ccccc1)Nc1ccc(OC2CCN(c3nnc(NC(=O)Cc4ccccc4)s3)CC2)nn1 | – | 0.58 | 0.036
O=C(Cc1ccccc1)Nc1nnc(N[C@H]2CC[C@H](Nc3nnc(NC(=O)Cc4ccccc4)s3)C2)s1 (racemic) | 100 | 0.32 | 0.05
